Measurements: ChEMBL document CHEMBL1143327, “Carbonic anhydrase inhibitors: inhibition studies of a coral secretory isoform with inorganic anions” (Bioorg Med Chem Lett, 2009)

Biological target: Carbonic anhydrase 4 (Homo sapiens, UniProt P22748)
Sequence (P22748 whole entry): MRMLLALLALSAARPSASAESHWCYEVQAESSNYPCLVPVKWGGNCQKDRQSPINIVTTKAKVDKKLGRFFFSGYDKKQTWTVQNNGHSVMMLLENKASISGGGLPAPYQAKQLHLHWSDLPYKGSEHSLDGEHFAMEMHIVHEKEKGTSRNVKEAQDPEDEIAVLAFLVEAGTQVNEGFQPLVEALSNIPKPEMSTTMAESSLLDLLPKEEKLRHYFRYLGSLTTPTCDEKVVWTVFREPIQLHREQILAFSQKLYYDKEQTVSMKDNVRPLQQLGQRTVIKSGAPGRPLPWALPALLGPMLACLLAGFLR

Row | Ki [µM] | Structure (SMILES)
1 | 820 | OB(O)c1ccccc1 [PHENYLBORONIC ACID]
2 | 90 | NS(=O)(=O)O [SULFAMATE]
